Molecular target: T1, IKZF2 (Helios) (Homo sapiens, UniProt Q96SW2+Q9UKS7)
T1 construct: CRISPR/Cas-mediated insertion of the HiBiT peptide tag (Promega™) to the N-terminus of the IKZF2 gene locus; endogenous in cells; host or cells: MOLT4 cells, CRISPR/Cas knock-in of HiBiT at the endogenous IKZF2 locus
Test: MOLT4 IKZF2 HiBit assay protocol (Example 64)
Assay type: cell-based
Settings: MOLT4 IKZF2 HiBit cells, 10-point 30 μM to 1 nM; table title: after 6 hours of treatment (method: incubated 24 hours)
Procedure: This protocol uses MOLT4 cells that were engineered using CRISPR/Cas9-mediated genomic insertion of HiBit, tagged to the N terminus of the IKZF2 coding sequence. Day 1. Created a 10-point dose response starting from 30 μM down to 1 nM using a Tecan D300e. Next added 8,000 cells/well of the MOLT4 IKZF2 HiBit cells to the compound plate. […] Day 2. Added Nano-Glo® HiBit Lytic Buffer/Nano-Glo® HiBit Lytic substrate/LgBit Protein mix to each well and incubated for 15 minutes. Finally, read luminescence signal using a BMG Labtech PHERAstar® FSX. Data was normalized to DMSO and graphed using GraphPad Prism to determine the concentration points at which 50% of HiBiT-Helios degradation was achieved by each compound. The extent of degradation (range of luminescence) from the highest to lowest concentration points was calculated to determine Dmax.

T1 sequence (Q9UKS7 whole entry): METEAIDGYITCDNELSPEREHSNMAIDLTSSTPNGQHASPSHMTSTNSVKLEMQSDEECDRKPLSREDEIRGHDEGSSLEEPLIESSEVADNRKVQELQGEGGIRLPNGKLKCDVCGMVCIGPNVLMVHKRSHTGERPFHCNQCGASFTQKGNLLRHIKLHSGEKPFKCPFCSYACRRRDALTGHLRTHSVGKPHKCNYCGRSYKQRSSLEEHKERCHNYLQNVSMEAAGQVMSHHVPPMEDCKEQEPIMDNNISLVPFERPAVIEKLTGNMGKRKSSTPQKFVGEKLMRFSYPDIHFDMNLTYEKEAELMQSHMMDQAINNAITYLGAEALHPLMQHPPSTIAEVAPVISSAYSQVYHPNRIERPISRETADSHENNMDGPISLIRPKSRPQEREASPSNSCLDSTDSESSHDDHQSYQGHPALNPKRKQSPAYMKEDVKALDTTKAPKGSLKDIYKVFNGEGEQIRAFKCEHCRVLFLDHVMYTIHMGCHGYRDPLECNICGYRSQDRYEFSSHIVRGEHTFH
T1 sequence (Q96SW2 whole entry): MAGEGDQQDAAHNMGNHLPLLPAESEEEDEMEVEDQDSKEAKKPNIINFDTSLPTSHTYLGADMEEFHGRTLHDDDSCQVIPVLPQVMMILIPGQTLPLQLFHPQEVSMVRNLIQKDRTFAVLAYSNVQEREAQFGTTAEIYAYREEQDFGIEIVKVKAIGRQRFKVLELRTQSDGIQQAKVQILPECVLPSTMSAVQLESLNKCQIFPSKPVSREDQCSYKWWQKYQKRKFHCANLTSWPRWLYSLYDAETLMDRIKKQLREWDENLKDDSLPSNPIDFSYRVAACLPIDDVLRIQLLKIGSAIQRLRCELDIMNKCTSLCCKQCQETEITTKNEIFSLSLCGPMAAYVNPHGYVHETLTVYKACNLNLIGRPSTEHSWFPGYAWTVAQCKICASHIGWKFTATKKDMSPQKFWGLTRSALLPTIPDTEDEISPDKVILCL
T1 sequence (Q16531 whole entry partner): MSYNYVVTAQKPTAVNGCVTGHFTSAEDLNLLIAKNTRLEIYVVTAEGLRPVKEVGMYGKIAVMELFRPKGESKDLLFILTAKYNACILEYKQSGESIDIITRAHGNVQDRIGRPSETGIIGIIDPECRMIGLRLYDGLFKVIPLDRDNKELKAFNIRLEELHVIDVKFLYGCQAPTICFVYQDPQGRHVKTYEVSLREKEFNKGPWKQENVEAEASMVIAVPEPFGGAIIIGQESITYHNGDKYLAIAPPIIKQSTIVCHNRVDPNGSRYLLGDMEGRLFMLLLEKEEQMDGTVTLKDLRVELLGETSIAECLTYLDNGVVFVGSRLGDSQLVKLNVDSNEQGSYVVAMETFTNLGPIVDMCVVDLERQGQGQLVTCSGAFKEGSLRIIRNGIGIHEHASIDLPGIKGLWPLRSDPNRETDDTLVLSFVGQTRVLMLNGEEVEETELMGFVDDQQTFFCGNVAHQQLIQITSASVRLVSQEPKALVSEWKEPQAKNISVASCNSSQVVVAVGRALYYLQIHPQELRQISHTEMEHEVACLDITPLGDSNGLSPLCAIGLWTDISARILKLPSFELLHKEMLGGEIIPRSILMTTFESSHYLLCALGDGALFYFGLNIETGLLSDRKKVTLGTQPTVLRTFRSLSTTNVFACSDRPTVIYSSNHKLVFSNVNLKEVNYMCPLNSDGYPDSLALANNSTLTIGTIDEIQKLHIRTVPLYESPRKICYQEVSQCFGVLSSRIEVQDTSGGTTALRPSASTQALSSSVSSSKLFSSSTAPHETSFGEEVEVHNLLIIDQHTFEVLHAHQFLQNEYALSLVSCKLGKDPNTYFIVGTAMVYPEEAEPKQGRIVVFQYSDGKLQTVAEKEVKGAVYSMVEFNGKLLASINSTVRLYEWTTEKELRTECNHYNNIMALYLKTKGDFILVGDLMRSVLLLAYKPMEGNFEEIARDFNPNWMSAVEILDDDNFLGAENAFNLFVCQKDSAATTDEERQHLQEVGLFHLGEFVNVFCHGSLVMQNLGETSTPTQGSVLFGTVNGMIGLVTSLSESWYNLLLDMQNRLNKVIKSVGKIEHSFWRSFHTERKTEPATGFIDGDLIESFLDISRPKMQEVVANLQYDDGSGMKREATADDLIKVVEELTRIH

`O=C1CCC(N2Cc3cc(C4CCN(Cc5ccc6ncn(-c7cccc(F)c7)c(=O)c6c5)CC4)ccc3C2=O)C(=O)N1` (stereo not drawn) [Compound 28, 3-(5-(1-((3-(3-fluorophenyl)-4-oxo-3,4-dihydroquinazolin-6-yl)methyl)piperidin-4-yl)-1-oxoisoindolin-2-yl)piperidine-2,6-dione] was tested. Which DC50 did it give?
The DC50 was 5 to 25 nM.

Which DC50 does the source give for `O=C1CCC(N2Cc3cc(C4CCN(Cc5ccc6nc(-c7ccccc7)cn6c5)CC4)ccc3C2=O)C(=O)N1` (stereo not drawn) [Compound 54, 3-(1-oxo-5-(1-((2-phenylimidazo[1,2-a]pyridin-6-yl)methyl)piperidin-4-yl)isoindolin-2-yl)piperidine-2,6-dione] here?
The DC50 was less than 5 nM.

Which DC50 does the source give for `O=C1CCC(N2Cc3cc(C4CCN(Cc5ccc6nc(-c7ccccc7)nn6c5)CC4)ccc3C2=O)C(=O)N1` (stereo not drawn) [Compound 55, 3-(1-oxo-5-(1-((2-phenyl-[1,2,4]triazolo[1,5-a]pyridin-6-yl)methyl)piperidin-4-yl)isoindolin-2-yl)piperidine-2,6-dione] here?
The DC50 was 25 to 100 nM.

For `O=C1CCC(N2Cc3cc(C4CCN(Cc5ccc6ncn(-c7cccc(C(F)(F)F)c7)c(=O)c6c5)CC4)ccc3C2=O)C(=O)N1` (stereo not drawn) [Compound 60, 3-(1-oxo-5-(1-((4-oxo-3-(3-(trifluoromethyl)phenyl)-3,4-dihydroquinazolin-6-yl)methyl)piperidin-4-yl)isoindolin-2-yl)piperidine-2,6-dione], which DC50 is on record?
Its DC50 is 5 to 25 nM.

How did the DC50 turn out when `N#Cc1cccc(-n2cnc3ccc(CN4CCC(c5ccc6c(c5)CN(C5CCC(=O)NC5=O)C6=O)CC4)cc3c2=O)c1` (stereo not drawn) [Compound 61, 3-(6-((4-(2-(2,6-dioxopiperidin-3-yl)-1-oxoisoindolin-5-yl)piperidin-1-yl)methyl)-4-oxoquinazolin-3(4H)-yl)benzonitrile] was run?
The DC50 was 5 to 25 nM.

How did the DC50 turn out when `Cc1cccc(-n2cnc3ccc(CN4CCC(c5ccc6c(c5)CN(C5CCC(=O)NC5=O)C6=O)CC4)cc3c2=O)n1` (stereo not drawn) [Compound 62, 3-(5-(1-((3-(6-methylpyridin-2-yl)-4-oxo-3,4-dihydroquinazolin-6-yl)methyl)piperidin-4-yl)-1-oxoisoindolin-2-yl)piperidine-2,6-dione] was run?
The DC50 was 5 to 25 nM.

Which DC50 does the source give for `CC(C)c1cccc(-n2cnc3ccc(CN4CCC(c5ccc6c(c5)CN(C5CCC(=O)NC5=O)C6=O)CC4)cc3c2=O)n1` (stereo not drawn) [Compound 63, 3-(5-(1-((3-(6-isopropylpyridin-2-yl)-4-oxo-3,4-dihydroquinazolin-6-yl)methyl)piperidin-4-yl)-1-oxoisoindolin-2-yl)piperidine-2,6-dione] here?
Its DC50 is 5 to 25 nM.

For `O=C1CCC(N2Cc3cc(C4CCN(Cc5ccc6ncn(-c7cccc(C(F)(F)F)n7)c(=O)c6c5)CC4)ccc3C2=O)C(=O)N1` (stereo not drawn) [Compound 64, 3-(1-oxo-5-(1-((4-oxo-3-(6-(trifluoromethyl)pyridin-2-yl)-3,4-dihydroquinazolin-6-yl)methyl)piperidin-4-yl)isoindolin-2-yl)piperidine-2,6-dione], which DC50 is on record?
Its DC50 is 5 to 25 nM.

`COc1cccc(-n2cnc3ccc(CN4CCC(c5ccc6c(c5)CN(C5CCC(=O)NC5=O)C6=O)CC4)cc3c2=O)n1` (stereo not drawn) [Compound 65, 3-(5-(1-((3-(6-methoxypyridin-2-yl)-4-oxo-3,4-dihydroquinazolin-6-yl)methyl)piperidin-4-yl)-1-oxoisoindolin-2-yl)piperidine-2,6-dione] was tested. Which DC50 did it give?
The DC50 was 5 to 25 nM.

With `O=C1CCC(N2Cc3cc(C4CCN(Cc5ccc6ncn(-c7cccnc7)c(=O)c6c5)CC4)ccc3C2=O)C(=O)N1` (stereo not drawn) [Compound 67, 3-(1-oxo-5-(1-((4-oxo-3-(pyridin-3-yl)-3,4-dihydroquinazolin-6-yl)methyl)piperidin-4-yl)isoindolin-2-yl)piperidine-2,6-dione] as the compound, how does the DC50 read?
The DC50 was 5 to 25 nM.

`Cc1ncccc1-n1cnc2ccc(CN3CCC(c4ccc5c(c4)CN(C4CCC(=O)NC4=O)C5=O)CC3)cc2c1=O` (stereo not drawn) [Compound 68, 3-(5-(1-((3-(2-methylpyridin-3-yl)-4-oxo-3,4-dihydroquinazolin-6-yl)methyl)piperidin-4-yl)-1-oxoisoindolin-2-yl)piperidine-2,6-dione] was tested. Which DC50 did it give?
The DC50 was less than 5 nM.

`Cc1ccc(-n2cnc3ccc(CN4CCC(c5ccc6c(c5)CN(C5CCC(=O)NC5=O)C6=O)CC4)cc3c2=O)cn1` (stereo not drawn) [Compound 69, 3-(5-(1-((3-(6-methylpyridin-3-yl)-4-oxo-3,4-dihydroquinazolin-6-yl)methyl)piperidin-4-yl)-1-oxoisoindolin-2-yl)piperidine-2,6-dione] was tested. Which “IKZF2 DC50 (M)” value did it give?
The value was “+ +”.

`O=C1CCC(N2Cc3cc(C4CCN(Cc5ccc6ncn(-c7cncc(F)c7)c(=O)c6c5)CC4)ccc3C2=O)C(=O)N1` (stereo not drawn) [Compound 75, 3-(5-(1-((3-(5-fluoropyridin-3-yl)-4-oxo-3,4-dihydroquinazolin-6-yl)methyl)piperidin-4-yl)-1-oxoisoindolin-2-yl)piperidine-2,6-dione] was tested. Which DC50 did it give?
Its DC50 is 25 to 100 nM.

Which DC50 does the source give for `Cn1cc(-n2cnc3ccc(CN4CCC(c5ccc6c(c5)CN(C5CCC(=O)NC5=O)C6=O)CC4)cc3c2=O)cn1` (stereo not drawn) [Compound 82, 3-(5-(1-((3-(1-methyl-1H-pyrazol-4-yl)-4-oxo-3,4-dihydroquinazolin-6-yl)methyl)piperidin-4-yl)-1-oxoisoindolin-2-yl)piperidine-2,6-dione] here?
The DC50 was 5 to 25 nM.

How did the DC50 turn out when `Cc1nc2ccc(CN3CCC(c4ccc5c(c4)CN(C4CCC(=O)NC4=O)C5=O)CC3)cc2c(=O)n1-c1ccccc1` (stereo not drawn) [Compound 83, 3-(5-(1-((2-methyl-4-oxo-3-phenyl-3,4-dihydroquinazolin-6-yl)methyl)piperidin-4-yl)-1-oxoisoindolin-2-yl)piperidine-2,6-dione] was run?
The DC50 was less than 5 nM.

How did the DC50 turn out when `Cc1nc2ccc(CN3CCC(c4ccc5c(c4)CN(C4CCC(=O)NC4=O)C5=O)CC3)cc2c(=O)n1-c1ccccn1` (stereo not drawn) [Compound 84, 3-(5-(1-((2-methyl-4-oxo-3-(pyridin-2-yl)-3,4-dihydroquinazolin-6-yl)methyl)piperidin-4-yl)-1-oxoisoindolin-2-yl)piperidine-2,6-dione] was run?
Its DC50 is less than 5 nM.

How did the DC50 turn out when `O=C1CCC(N2Cc3c(ccc(C4CCN(Cc5ccc6ncn(-c7ccccn7)c(=O)c6c5)CC4)c3F)C2=O)C(=O)N1` (stereo not drawn) [Compound 85, 3-(4-fluoro-1-oxo-5-(1-((4-oxo-3-(pyridin-2-yl)-3,4-dihydroquinazolin-6-yl)methyl)piperidin-4-yl)isoindolin-2-yl)piperidine-2,6-dione] was run?
Its DC50 is 25 to 100 nM.

With `O=C1CCC(N2Cc3cc(C4CCN(Cc5cc6c(=O)n(-c7ccccn7)cnc6cc5F)CC4)ccc3C2=O)C(=O)N1` (stereo not drawn) [Compound 87, 3-(5-(1-((7-fluoro-4-oxo-3-(pyridin-2-yl)-3,4-dihydroquinazolin-6-yl)methyl)piperidin-4-yl)-1-oxoisoindolin-2-yl)piperidine-2,6-dione] as the compound, how does the DC50 read?
The DC50 was less than 5 nM.

With `O=C1CCC(N2Cc3c(ccc(C4CCN(Cc5ccc6ncn(-c7cccnc7)c(=O)c6c5)CC4)c3F)C2=O)C(=O)N1` (stereo not drawn) [Compound 89, 3-(4-fluoro-1-oxo-5-(1-((4-oxo-3-(pyridin-3-yl)-3,4-dihydroquinazolin-6-yl)methyl)piperidin-4-yl)isoindolin-2-yl)piperidine-2,6-dione] as the compound, how does the DC50 read?
Its DC50 is 5 to 25 nM.

With `O=C1CCC(N2Cc3cc(C4CCN(Cc5ccc6cc(-c7ccccn7)nn6c5)CC4)ccc3C2=O)C(=O)N1` (stereo not drawn) [Compound 92, 3-(1-oxo-5-(1-((2-(pyridin-2-yl)pyrazolo[1,5-a]pyridin-6-yl)methyl)piperidin-4-yl)isoindolin-2-yl)piperidine-2,6-dione] as the compound, how does the DC50 read?
The DC50 was 5 to 25 nM.

Which DC50 does the source give for `O=C1CCC(N2Cc3cc(C4CCN(Cc5cn6cc(-c7ccccc7)ccc6n5)CC4)ccc3C2=O)C(=O)N1` (stereo not drawn) [Compound 96, 3-(1-oxo-5-(1-((6-phenylimidazo[1,2-a]pyridin-2-yl)methyl)piperidin-4-yl)isoindolin-2-yl)piperidine-2,6-dione] here?
Its DC50 is 25 to 100 nM.

— patent publication US20240034723A1, “PIPERIDINYL SMALL MOLECULE DEGRADERS OF HELIOS AND METHODS OF USE” (DANA-FARBER CANCER INSTITUTE, INC., priority 2020, published 2024)
